In patent US10179148B2, “Keratolytic composition with anti-allergic anti-inflammatory properties” (priority 2003, dated 2019):

System: psoriasis patients
Assay: topical testing of cleansing/topical compositions on psoriasis patients
Type: in vivo, human
Conditions: in cleansing liquid along with gentle surfactants sodium laureth sulfate and ammonium laureth sulfate; psoriasis effected patients; 5 patients
Excerpt: Most of the cleansing agents contain sodium chloride and/or ammonium chloride and/or potassium chloride.
This invention is lead by desire for developing a new and innovative treatment, which can be used in the longer periods of time without side effect associated with other products. The Topical Composition given in the example being used for more than 6 months and also tested on other psoriasis patients with encouraging results.
Though the exact mechanism of action of quaternary ammonium compounds, such as ammonium chloride, and vanilla is not fully understood, actual testing on psoriasis patients have shown encouraging results without side effects associated with steroids and other presently available psoriasis topical applications.

SMILES	keratolytic properties (removing scales)
Cl.N [ammonium chloride]	showing keratolytic properties by removing scales
[Cl-].[Na+] [sodium chloride]	not having keratolytic properties
